In test [1] the target is T1, μ-opioid receptor (Homo sapiens (Human), UniProt P35372). Put plainly: μ-opioid receptor radioligand dose-displacement binding assay ([3H]-diprenorphine). The following applies: binding affinity, [3H]-diprenorphine displacement; read-out: Ki (nM) Opioid Receptor μ. On the procedure: μ-Opioid Receptor Binding Assay Procedures: Radioligand dose-displacement binding assays for μ-opioid receptors used 0.3 nM [^3H]-diprenorphine (Perkin Elmer, Shelton, Conn.), with […] membrane protein/well in a final volume of 500 μl binding buffer (10 mM MgCl2, 1 mM EDTA, 5% DMSO, 50 mM HEPES, pH 7.4). Reactions were carried out in the absence or presence of increasing concentrations of unlabeled naloxone. All reactions were conducted in 96-deep well polypropylene plates for 2 hours at room temperature. Binding reactions were terminated by rapid filtration onto 96-well Unifilter GF/C filter plates (Perkin Elmer, Shelton, Conn.), presoaked in 0.5% polyethylenimine using a 96-well tissue harvester (Perkin Elmer, Shelton, Conn.) followed by performing three filtration washes with 500 μl of ice-cold binding buffer. Filter plates were subsequently dried at 50° C. for 2-3 hours. BetaScint scintillation cocktail (Perkin Elmer, Shelton, Conn.) was added (50 μl/well), and plates were counted using a Packard Top-Count for 1 min/well. The data were analyzed using the one-site competition curve fitting functions in GraphPad PRISM™ v. 3.0 or higher (San Diego, Calif.), or an in-house function for one-site competition curve-fitting.

The target in test [2] is T2, κ-opioid receptor (Homo sapiens (Human), UniProt P41145). Put plainly: κ-opioid receptor radioligand dose-displacement binding assay ([3H]-U69,593). To be noted: binding affinity, [3H]-U69,593 displacement. Here is the method:
κ-Opioid Receptor Binding Assay Procedures: Membranes from HEK-293 cells, CHO or U-2 OS cells expressing the recombinant human kappa opioid receptor (κ) were prepared by lysing cells in ice cold hypotonic buffer (2.5 mM MgCl2, 50 mM HEPES, pH 7.4) (10 mL/10 cm dish) followed by homogenization with a tissue grinder/Teflon pestle. Membranes were collected by centrifugation at 30,000×g for 15 min at 4° C. and pellets were resuspended in hypotonic buffer to a final concentration of 1-3 mg/mL. Protein concentrations were determined using the BioRad protein assay reagent with bovine serum albumen as standard, Aliquots of κ receptor membranes were stored at […].
Radioligand dose displacement assays used 0.4 nM [^3H]-U69,593 (GE Healthcare, Piscataway, N.J.; 40 Ci/mmole) with 15 μg membrane protein (recombinant κ opioid receptor expressed in HEK 293 cells; in-house prep) in a final volume of 200 μl binding buffer (5% DMSO, 50 mM Trizma base, pH 7.4). Non-specific binding was determined in the presence of 10 μM unlabeled naloxone or U69,593. All reactions were performed in 96-well polypropylene plates for 1 hour at a temperature of about 25° C. Binding reactions were terminated by rapid filtration onto 96-well Unifilter GF/C filter plates (Perkin Elmer, Shelton, Conn.) presoaked in 0.5% polyethylenimine (Sigma). Harvesting was performed using a 96-well tissue harvester (Perkin Elmer, Shelton, Conn.) followed by five filtration washes with 200 μl ice-cold binding buffer. Filter plates were subsequently dried at 50° C. for 1-2 hours. Fifty μl/well scintillation cocktail (Perkin Elmer, Shelton, Conn.) was added and plates were counted in a Packard Top-Count for 1 min/well.

The next test has as its target δ-opioid receptor (Homo sapiens (Human), UniProt P41143). Put plainly: δ-opioid receptor radioligand dose-displacement binding assay ([3H]-Naltrindole). The following applies: binding affinity, [3H]-Naltrindole displacement. On the procedure:
δ-Opioid Receptor Binding Assay Procedures: δ-Opioid Receptor Binding Assay Procedures were conducted as follows. Radioligand dose-displacement assays used 0.2 nM [^3H]-Naltrindole (Perkin Elmer, Shelton, Conn.; 33.0 Ci/mmole) with 5 μg membrane protein (Perkin Elmer, Shelton, Conn.) in a final volume of 500 μl binding buffer (5 mM MgCl2, 5% DMSO, 50 mM Trizma base, pH 7.4). Non-specific binding was determined in the presence of 25 μM unlabeled naloxone. All reactions were performed in 96-deep well polypropylene plates for 1 hour at a temperature of about 25° C. Binding reactions were terminated by rapid filtration onto 96-well Unifilter GF/C filter plates (Perkin Elmer, Shelton, Conn.) presoaked in 0.5% polyethylenimine (Sigma). Harvesting was performed using a 96-well tissue harvester (Perkin Elmer, Shelton, Conn.) followed by five filtration washes with 500 μl ice-cold binding buffer. Filter plates were subsequently dried at 50° C. for 1-2 hours. Fifty μl/well scintillation cocktail (Perkin Elmer, Shelton, Conn.) was added and plates were counted in a Packard Top-Count for 1 min/well.

The target in test [3] is T1, μ-opioid receptor. Put plainly: μ-opioid receptor [35S]GTPγS functional assay, HEK-293 or CHO cells. Format: biochemical. The following applies: for Emax: relative to DAMGO, HEK-293 or CHO cells. For orientation: GTPγS resists hydrolysis and so accumulates on activated G proteins.
For test [4], the target named is T2, κ-opioid receptor. Put plainly: κ-opioid receptor [35S]GTPγS functional assay, HEK-293 or CHO cells. Format: biochemical. The following applies: for Emax: relative to U69,593, HEK-293 or CHO cells.
For another test, the target named is ORL-1 receptor (Homo sapiens (Human), UniProt P41146). Put plainly: ORL-1 receptor radioligand binding assay ([3H]-nociceptin). To be noted: binding affinity, [3H]-nociceptin displacement. Here is the method:
ORL-1 Receptor Binding Assay Procedure: Membranes from recombinant HEK-293 cells expressing the human opioid receptor-like receptor (ORL-1) (Perkin Elmer, Shelton, Conn.) were prepared by lysing cells in ice-cold hypotonic buffer (2.5 mM MgCl2, 50 mM HEPES, pH 7.4) (10 ml/10 cm dish) followed by homogenization with a tissue grinder/Teflon pestle. Membranes were collected by centrifugation at 30,000×g for […] at 4° C. and pellets resuspended in hypotonic buffer to a final concentration of 1-3 mg/ml. Protein concentrations were determined using the BioRad protein assay reagent with bovine serum albumen as standard. Aliquots of the ORL-1 receptor membranes were stored at −80° C.
Radioligand binding assays (screening and dose-displacement) used 0.1 nM [^3H]-nociceptin (Perkin Elmer, Shelton, Conn.; 87.7 Ci/mmole) with 12 μg membrane protein in a final volume of 500 μl binding buffer (10 mM MgCl2, 1 mM EDTA, 5% DMSO, 50 mM HEPES, pH 7.4). Non-specific binding was determined in the presence of […] unlabeled nociceptin (American Peptide Company). All reactions were performed in 96-deep well polypropylene plates for 1 h at room temperature. Binding reactions were terminated by rapid filtration onto 96-well Unifilter GF/C filter plates (Perkin Elmer, Shelton, Conn.) presoaked in 0.5% polyethylenimine (Sigma). Harvesting was performed using a 96-well tissue harvester (Perkin Elmer, Shelton, Conn.) followed by three filtration washes with 500 μl ice-cold binding buffer. Filter plates were subsequently dried at 50° C. for 2-3 hours. Fifty μl/well scintillation cocktail (Perkin Elmer, Shelton, Conn.) was added and plates were counted in a Packard Top-Count for 1 min/well. The data from screening and dose-displacement experiments were analyzed using Microsoft Excel and the curve fitting functions in GraphPad PRISM™, v. 3.0 or higher, respectively, or an in-house function for one-site competition curve-fitting.

Sequence of δ-opioid receptor (P41143 whole entry, looked up): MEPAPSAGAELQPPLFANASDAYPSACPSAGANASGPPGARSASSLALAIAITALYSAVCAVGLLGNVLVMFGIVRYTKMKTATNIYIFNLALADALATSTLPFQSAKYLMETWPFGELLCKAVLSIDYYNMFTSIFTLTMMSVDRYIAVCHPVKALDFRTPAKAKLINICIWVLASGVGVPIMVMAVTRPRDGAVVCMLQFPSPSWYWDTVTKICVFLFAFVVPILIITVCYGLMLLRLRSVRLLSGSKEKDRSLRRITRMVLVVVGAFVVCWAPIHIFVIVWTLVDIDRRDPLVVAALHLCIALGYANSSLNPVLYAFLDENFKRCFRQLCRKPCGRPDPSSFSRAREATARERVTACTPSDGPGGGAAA

Regarding `COC(=O)c1cc2c([nH]c1=O)C[C@]13CCN(CC4CC4)[C@H](Cc4ccc(OC)cc41)[C@@H]3C2` [Compound 3, (6R,6aR,12aS)-methyl 15-(cyclopropylmethyl)-2-methoxy-10-oxo-6,6a,7,10,11,12-hexahydro-5H-6,12a-(epiminoethano)naphtho[2,1-g]quinoline-9-carboxylate], the Ki was determined as 449 ± 171 nM on μ-opioid receptor [1], 3.85 ± 1.09 nM on κ-opioid receptor [2] and 18.9 ± 7.84 nM at δ-opioid receptor. The EC50 came out at 34.9 ± 6.84 nM at μ-opioid receptor [3] and 39.1 ± 2.6 nM at κ-opioid receptor [4]. The figures for the Emax on μ-opioid receptor [3] and at κ-opioid receptor [4] were 15.7 ± 3.48% and 52.3 ± 1.76%, respectively.
Consider `C[C@H](NC(=O)c1cc2c([nH]c1=O)C[C@]13CCN(CC4CC4)[C@H](Cc4ccc(O)cc41)[C@@H]3C2)C(N)=O` [Compound 22, (6R,6aR,12aS)—N—((S)-1-amino-1-oxopropan-2-yl)-15-(cyclopropylmethyl)-2-hydroxy-10-oxo-6,6a,7,10,11,12-hexahydro-5H-6,12a-(epiminoethano)naphtho[2,1-g]quinoline-9-carboxamide], for which the Ki on ORL-1 receptor was 1.2 ± 0.21 nM; at μ-opioid receptor [1] it was 0.56 ± 0.11 nM. The EC50 at μ-opioid receptor [3] was 4.22 ± 1 nM; at κ-opioid receptor [4] it was 9.89 ± 2.4 nM. Also, the maximal effect (Emax) at μ-opioid receptor [3] is 30 ± 3.21%; at κ-opioid receptor [4], 36.7 ± 2.73%.
Take `NC(=O)CNC(=O)c1cc2c([nH]c1=O)C[C@]13CCN(CC4CC4)[C@H](Cc4ccc(O)cc41)[C@@H]3C2` [Compound 21, (6R,6aR,12aS)—N-(2-amino-2-oxoethyl)-15-(cyclopropylmethyl)-2-hydroxy-10-oxo-6,6a,7,10,11,12-hexahydro-5H-6,12a-(epiminoethano)naphtho[2,1-g]quinoline-9-carboxamide]: the inhibitory constant (Ki) turned out to be 2.04 ± 0.49 nM at ORL-1 receptor and 0.59 ± 0.15 nM on μ-opioid receptor [1]. The half-maximal effective concentration (EC50) came out at 1.73 ± 0.41 nM on μ-opioid receptor [3] and 4.19 ± 0.79 nM on κ-opioid receptor [4]. In addition, the results for the maximal effect (Emax) at μ-opioid receptor [3] and on κ-opioid receptor [4] were 23.7 ± 2.19% and 41 ± 5.29%, respectively.
Regarding `NC(=O)[C@H](Cc1ccccc1)NC(=O)c1cc2c([nH]c1=O)C[C@]13CCN(CC4CC4)[C@H](Cc4ccc(O)cc41)[C@@H]3C2` [Compound 23, (6R,6aR,12aS)—N—((S)-1-amino-1-oxo-3-phenylpropan-2-yl)-15-(cyclopropylmethyl)-2-hydroxy-10-oxo-6,6a,7,10,11,12-hexahydro-5H-6,12a-(epiminoethano)naphtho[2,1-g]quinoline-9-carboxamide], the Ki was determined as 1.86 ± 0.65 nM on μ-opioid receptor [1] and 0.31 ± 0.05 nM on κ-opioid receptor [2]. Besides, the 50% effective concentration (EC50) at μ-opioid receptor [3] came to 3.19 ± 0.46 nM; at κ-opioid receptor [4] it was 8.35 ± 2.25 nM. Also, the figures for the Emax on μ-opioid receptor [3] and at κ-opioid receptor [4] were 41.3 ± 5.04% and 25.7 ± 4.18%, respectively.

Usually Ki stands for a measure of affinity in units of concentration, obtained from inhibition or displacement. One may read the EC50 as the concentration giving half of the maximal effect. Low readings indicate a more potent agent, high ones a less potent agent. In general, Emax refers to the maximal effect, on the per cent scale that the assay sets.

The values above are taken from US8980906B2, “Pyridonemorphinan analogs and biological activity on opioid receptors” (Purdue Pharma L.P., priority 2012, dated 2015).
